Source: publication PMC6271228, “Diethyl 2-(Phenylcarbamoyl)phenyl Phosphorothioates: Synthesis, Antimycobacterial Activity and Cholinesterase Inhibition” (Molecules, 2014)
≈ marks a conversion by molar mass, not a printed value. Read-outs that look alike come from different tables or passages of the source.

What was measured:
[1] = tested on: M. avium My 330/88; test: microbe, parasite or virus in culture; type: cell-based, Mycobacterium avium; conditions: for MIC: Mycobacterium avium, 37 °C
[2] = biological target: T1, BChE from equine serum (Equus caballus, UniProt P81908); test: BChE inhibition, modified Ellman's method; type: biochemical
T1 construct: butyrylcholinesterase from equine serum; from tissue; host or cells: equine serum
Source text: (§1) The ability of the tested compounds to inhibit AChE from electric eel (Electrophorus electricus L.) and BChE from equine serum was screened in vitro using modified Ellman’s method for the evaluation of cholinesterase activity. […] […]. These two standards were chosen due to their different structures. […]. The choice of these drugs with different mechanism of action can provide relevant results. All tested compounds expressed a good inhibitory activity with IC50s in low micromolar values.
(§2) The IC50 values were determined using the spectrophotometric Ellman’s method, which is a simple, rapid and direct method to determine the SH and -S-S- group content in proteins. This method is widely used for cholinesterase activity evaluation and screening of the efficiency of cholinesterase inhibitors. Cholinesterase activity is measured indirectly by quantifying the concentration of 5-thio-2-nitrobenzoic acid (TNB) ion formed in the reaction between the thiol reagent 5,5'-dithiobis-2-nitrobenzoic acid (DTNB) and thiocholine, a product of substrate hydrolysis by cholinesterase (i.e., acetylthiocholine, ATCh). All the tested compounds were dissolved in dimethyl sulfoxide (concentration 0.01 M) and then diluted in demineralised water (concentration 0.001 M and 0.0001 M). The Ellman’s method is slightly modified according to Zdrazilova et al.. Acetylcholinesterase was obtained from electric eel (Electrophorus electricus L.) and butyrylcholinesterase from equine serum.

[3] = tested on: M. kansasii My 235/80; test: microbe, parasite or virus in culture; type: cell-based, Mycobacterium kansasii; conditions: for MIC: Mycobacterium kansasii, 37 °C; for MICs for M. kansasii 235/80: all time points
[4] = tested on: Mycobacterium tuberculosis My 331/88 (H37Rv); test: microbe, parasite or virus in culture; type: cell-based; conditions: 37 °C
[5] = tested on: M. kansasii 6509/96 (clinically isolated); test: microbe, parasite or virus in culture; type: cell-based; conditions: Mycobacterium kansasii, 37 °C
[6] = biological target: T2, AChE from electric eel (Electrophorus electricus, UniProt O42275); test: AChE inhibition, modified Ellman's method; type: biochemical, Electrophorus electricus L.
T2 construct: Acetylcholinesterase was obtained from electric eel (Electrophorus electricus L.); from tissue; host or cells: electric eel (Electrophorus electricus L.)
Source text: as §1, §2

[7] = tested on: nontuberculous mycobacteria (M. avium and M. kansasii); test: microbe, parasite or virus in culture; type: cell-based; conditions: Mycobacterium avium, M. avium and M. kansasii strains; read-out: MIC values against nontuberculous mycobacteria
[8] = MY330/88, 336 h, 14 d, read-out: MIC M. avium 330/88 14 d
[9] = MY330/88, 504 h, 21 d, read-out: MIC M. avium 330/88 21 d
[10] = MY235/80, 168 h, 7 d, read-out: MIC M. kansasii 235/80 7 d
[11] = MY235/80, 336 h, 14 d, read-out: MIC M. kansasii 235/80 14 d
[12] = MY235/80, 504 h, 21 d, read-out: MIC M. kansasii 235/80 21 d
[13] = 336 h, 14 d, read-out: MIC Mtb 331/88 (H37Rv) 14 d
[14] = 504 h, 21 d, read-out: MIC Mtb 331/88 (H37Rv) 21 d
[15] = 168 h, 7 d, read-out: MIC M. kansasii 6509/96 7 d
[16] = 336 h, 14 d, read-out: MIC M. kansasii 6509/96 14 d
[17] = 504 h, 21 d, read-out: MIC M. kansasii 6509/96 21 d

T2 sequence (O42275 24-633): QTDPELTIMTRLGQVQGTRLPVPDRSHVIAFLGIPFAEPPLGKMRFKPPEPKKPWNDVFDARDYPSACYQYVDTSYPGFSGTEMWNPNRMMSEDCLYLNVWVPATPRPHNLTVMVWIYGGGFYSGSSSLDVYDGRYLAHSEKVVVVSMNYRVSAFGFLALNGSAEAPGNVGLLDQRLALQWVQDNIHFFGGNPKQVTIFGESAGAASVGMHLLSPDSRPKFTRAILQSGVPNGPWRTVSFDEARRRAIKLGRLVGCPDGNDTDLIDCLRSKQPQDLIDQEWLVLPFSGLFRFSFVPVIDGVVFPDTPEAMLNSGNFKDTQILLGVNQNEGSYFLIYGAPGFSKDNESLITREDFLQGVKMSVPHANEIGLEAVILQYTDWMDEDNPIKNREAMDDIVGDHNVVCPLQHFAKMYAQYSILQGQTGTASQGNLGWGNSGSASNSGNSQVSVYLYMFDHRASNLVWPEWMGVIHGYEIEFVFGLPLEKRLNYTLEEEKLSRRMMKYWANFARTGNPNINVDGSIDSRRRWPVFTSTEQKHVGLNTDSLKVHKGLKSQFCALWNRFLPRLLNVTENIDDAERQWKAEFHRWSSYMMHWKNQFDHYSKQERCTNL
T1 sequence (P81908 whole entry): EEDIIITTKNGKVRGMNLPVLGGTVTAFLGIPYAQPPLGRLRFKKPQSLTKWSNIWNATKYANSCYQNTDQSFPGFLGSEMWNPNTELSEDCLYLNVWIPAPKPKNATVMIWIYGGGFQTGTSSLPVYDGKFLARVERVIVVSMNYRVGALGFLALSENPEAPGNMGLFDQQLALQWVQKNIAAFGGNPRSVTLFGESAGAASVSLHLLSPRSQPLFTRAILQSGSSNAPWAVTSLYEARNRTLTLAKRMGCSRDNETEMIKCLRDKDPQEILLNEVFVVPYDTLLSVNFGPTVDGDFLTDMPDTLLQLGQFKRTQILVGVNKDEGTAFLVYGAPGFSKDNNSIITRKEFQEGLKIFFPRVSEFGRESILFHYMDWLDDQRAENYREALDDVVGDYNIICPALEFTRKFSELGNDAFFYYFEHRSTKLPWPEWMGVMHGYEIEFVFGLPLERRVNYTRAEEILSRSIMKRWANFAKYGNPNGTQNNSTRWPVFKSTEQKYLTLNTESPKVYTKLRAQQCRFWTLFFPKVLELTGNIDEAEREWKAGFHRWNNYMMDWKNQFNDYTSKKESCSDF

Row | SMILES | MIC [1, 8] [µM] | MIC [1, 9] [µM] | IC50 [2] [µM] | MIC [3, 10] [µM] | MIC [3, 11] [µM] | MIC [3, 12] [µM] | MIC [4, 13] [µM] | MIC [4, 14] [µM] | MIC [5, 15] [µM] | MIC [5, 16] [µM] | MIC [5, 17] [µM] | IC50 [6] [µM] | MICs for M. kansasii 235/80 [3] [µM] | MIC values against M. avium ([1]; all MIC values (14 and 21 d)) [µM] | MIC [7] [µM]
1 | CCOP(=S)(OCC)Oc1cc(Cl)ccc1C(=O)Nc1ccc(Cl)c(Cl)c1 [1u, O-{5-Chloro-2-[(3,4-dichlorophenyl)carbamoyl]phenyl} O,O-diethyl phosphorothioate] | > 500 | > 500 | 14.7 ± 0.2 | 32 (≈ 15 µg/mL) | 32 (≈ 15 µg/mL) | 32 (≈ 15 µg/mL) | 16 (≈ 7.5 µg/mL) | 16 (≈ 7.5 µg/mL) | 32 (≈ 15 µg/mL) | 62.5 (≈ 29.3 µg/mL) | 62.5 (≈ 29.3 µg/mL) | 9.56 ± 0.21 | – | – | –
2 | CCOP(=S)(OCC)Oc1cc(Cl)ccc1C(=O)Nc1cccc(Br)c1 [1v, O-{2-[(3-Bromophenyl)carbamoyl]-5-chlorophenyl} O,O-diethyl phosphorothioate] | 500 (≈ 239 µg/mL) | 500 (≈ 239 µg/mL) | 14.9 ± 1 | 32 (≈ 15.3 µg/mL) | 125 (≈ 59.8 µg/mL) | 250 (≈ 120 µg/mL) | 32 (≈ 15.3 µg/mL) | 32 (≈ 15.3 µg/mL) | 32 (≈ 15.3 µg/mL) | 125 (≈ 59.8 µg/mL) | 250 (≈ 120 µg/mL) | 9.98 ± 0.43 | – | – | –
3 | CCOP(=S)(OCC)Oc1cc(Cl)ccc1C(=O)Nc1ccc(Br)cc1 [1w, O-{2-[(4-Bromophenyl)carbamoyl]-5-chlorophenyl} O,O-diethyl phosphorothioate] | 250 (≈ 120 µg/mL) | 250 (≈ 120 µg/mL) | 16.4 ± 0.2 | 32 (≈ 15.3 µg/mL) | 32 (≈ 15.3 µg/mL) | 32 (≈ 15.3 µg/mL) | 32 (≈ 15.3 µg/mL) | 32 (≈ 15.3 µg/mL) | 32 (≈ 15.3 µg/mL) | 62.5 (≈ 29.9 µg/mL) | 62.5 (≈ 29.9 µg/mL) | 10.12 ± 0.08 | – | – | –
4 | CCOP(=S)(OCC)Oc1cc(Cl)ccc1C(=O)Nc1cccc(F)c1 [1x, O-{5-Chloro-2-[(3-fluorophenyl)carbamoyl]phenyl} O,O-diethyl phosphorothioate] | 250 (≈ 104 µg/mL) | 250 (≈ 104 µg/mL) | 8.68 ± 0.54 | 32 (≈ 13.4 µg/mL) | 125 (≈ 52.2 µg/mL) | 250 (≈ 104 µg/mL) | 16 (≈ 6.69 µg/mL) | 32 (≈ 13.4 µg/mL) | 32 (≈ 13.4 µg/mL) | 125 (≈ 52.2 µg/mL) | 250 (≈ 104 µg/mL) | 8.04 ± 0.27 | – | – | –
5 | CCOP(=S)(OCC)Oc1cc(Cl)ccc1C(=O)Nc1ccc(F)cc1 [1y, O-{5-Chloro-2-[(4-fluorophenyl)carbamoyl]phenyl} O,O-diethyl phosphorothioate] | 125 (≈ 52.2 µg/mL) | 250 (≈ 104 µg/mL) | 8.67 ± 0.49 | 62.5 (≈ 26.1 µg/mL) | 250 (≈ 104 µg/mL) | 500 (≈ 209 µg/mL) | 32 (≈ 13.4 µg/mL) | 32 (≈ 13.4 µg/mL) | 62.5 (≈ 26.1 µg/mL) | 250 (≈ 104 µg/mL) | 500 (≈ 209 µg/mL) | 11.6 ± 0.3 | – | – | –
6 | CCOP(=S)(OCC)Oc1cc(Cl)ccc1C(=O)Nc1cccc(C(F)(F)F)c1 [1z, O-(5-Chloro-2-{[3-(trifluoromethyl)phenyl]carbamoyl}phenyl) O,O-diethyl phosphorothioate] | 500 (≈ 234 µg/mL) | 500 (≈ 234 µg/mL) | 15 | 32 (≈ 15 µg/mL) | 125 (≈ 58.5 µg/mL) | 250 (≈ 117 µg/mL) | 32 (≈ 15 µg/mL) | 62.5 (≈ 29.2 µg/mL) | 62.5 (≈ 29.2 µg/mL) | 125 (≈ 58.5 µg/mL) | 125 (≈ 58.5 µg/mL) | 11.4 ± 0.3 | ≤ 250 | – | –
7 | CCOP(=S)(OCC)Oc1cc(Cl)ccc1C(=O)Nc1ccc(C(F)(F)F)cc1 [1zz, O-(5-Chloro-2-{[4-(trifluoromethyl)phenyl]carbamoyl}phenyl) O,O-diethyl phosphorothioate] | 62.5 (≈ 29.2 µg/mL) | 62.5 (≈ 29.2 µg/mL) | 18.3 ± 1 | 16 (≈ 7.49 µg/mL) | 16 (≈ 7.49 µg/mL) | 16 (≈ 7.49 µg/mL) | 8 (≈ 3.74 µg/mL) | 16 (≈ 7.49 µg/mL) | 16 (≈ 7.49 µg/mL) | 32 (≈ 15 µg/mL) | 32 (≈ 15 µg/mL) | 9.16 ± 0.17 | ≤ 250 | ≤ 250 | ≥ 16
